Results reported in US7652027B2, “Phenanthroindolizidine alkaloids” (National Health Research Institutes, priority 2005, dated 2010).

Assays:
[1] = system: HONE-1 (nasopharyngeal carcinoma); experiment: Carcinoma cell growth inhibition (MTS assay), HONE-1; format: cell-based; conditions: 72 h
Protocol: (§1) Two cancer cell lines, HONE-1 (nasopharyngeal carcinoma) and NUGC-3 (gastric cancer), were maintained in DMEM medium containing 10% fetal bovine serum, seeded in 96-well plates (4500 and 6000 cells/well, respectively), and incubated under CO2 at 37° C. for 24 h. The cells were treated with at least five different concentrations of test compounds in a CO2 incubator for 72 h. The number of viable cells was estimated using the tetrazolium dye reduction assay (MTS assay) according to the protocol provided by the manufacturer (Promega, Madison, Wis., USA). The absorbance was measured at 490 nm on a Wallac 1420 VICTOR2 Multilabel counter (Perkin-Elmer, Boston, Mass.). The results of these assays were used to obtain the dose-response curves from which IC50 (nM) values were determined (an IC50 value represents the concentration (nM) of the test compound at which it produces a 50% cell growth inhibition after 3 days of incubation).

NUGC-3 (gastric cancer) = experiment: Carcinoma cell growth inhibition (MTS assay), NUGC-3; format: cell-based; conditions: 72 h
Protocol: as §1

iNOS promoter = experiment: iNOS promoter-luciferase reporter assay in LPS/IFNγ-treated RAW 264.7 (or A549) cells; format: cell-based, murine or human; conditions: 10 μM compound; 5 μg/ml LPS, 20 ng/ml IFNγ; 18-20 h
Protocol: RAW 264.7 cells (or A549 cells) were seeded in 24-well plates (9×10^4 cells/well) and grown overnight in sodium pyruvate-free DMEM with 4 mM glutamine containing 1% non-essential amino acids (Biological Industries, Israel) with antibiotics and 10% heat-inactivated fetal bovine serum or 10% fetal calf serum (Biological Industries, Israel). The cells were then co-transfected with murine or human iNOS or murine COX-II promoter-luciferase reporter plasmids (100 ng/well) and pCMV-β-gal (100 ng/well) using FuGene6 (Roche, Germany) following the protocol provided by the manufacturer. Murine iNOS promoter luciferase plasmids, human iNOS promoter-luciferase reporter plasmids (pGL3-8296), and murine COX-II promoter-luciferase reporter plasmids were generously provided by Drs. Charles J. Lowenstein (John Hopkines University), Joel Moss (National Institute of Health), and Yu-Chih Liang (Taipei Medical University), respectively. […]
The luciferase and β-galactosidase assays were performed using a STEADY-GLO luciferase assay system (Promega) and Galacto-Star assay system (Tropix) according to the manufacturer's instructions. Luminescence was measured in a TOPCOUNT.NXT™ Microplate Scintillation and Luminescence Counter (Packard Inc.). […]

MEKK1 = biological target: T1, MEKK1 (Mus musculus, UniProt P53349); experiment: MEKK1 inhibition inferred from reporter assays in MEKK1 over-expressing RAW264.7 cells; format: cell-based; conditions: suggested by the reporter results in MEKK1 over-expressing cells
T1 construct: host or cells: RAW264.7
T1 sequence (P53349 1201-1493 limits assumed): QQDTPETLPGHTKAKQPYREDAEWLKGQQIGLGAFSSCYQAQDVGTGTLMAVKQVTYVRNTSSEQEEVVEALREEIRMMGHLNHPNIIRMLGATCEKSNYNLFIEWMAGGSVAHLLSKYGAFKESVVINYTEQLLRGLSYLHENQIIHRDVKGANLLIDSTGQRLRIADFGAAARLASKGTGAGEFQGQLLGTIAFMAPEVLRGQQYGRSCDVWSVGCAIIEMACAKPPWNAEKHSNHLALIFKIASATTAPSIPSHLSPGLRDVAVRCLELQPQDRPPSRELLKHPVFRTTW
Protocol: (§2) In a similar manner, RAW264.7 cells were transfected with pNF-κB-Luc plasmids (100 ng/well) or pAP 1-Luc (100 ng/well) as well as pFC-MEKK (Stratagene Corp., Calif.) (50 ng/well) and/or pCMV-β-gal plasmids (100 ng/well) and the transfected cells were subjected to the luciferase and β-galactosidase assays.

c-Jun = experiment: Expression of c-Jun in LPS/IFNγ-treated RAW264.7 cells; format: cell-based
COX-II = COX-II level by immunoblotting; format: cell-based; conditions: immunoblotting of cell lysates
Protocol: (§3) Levels of iNOS, COX-II, and β-actin (control) were measured by immunoblotting with anti-iNOS antibody (Biomol), anti-COX-II antibody (Upstate), and anti-β-actin antibody (Chemicon), respectively. The cell lysates were subjected to SDS-PAGE and the separated proteins were electrophoretically transferred to nitrocellulose membranes. The membranes were incubated, respectively, with blocking solution for 1 h, primary antibody for 2 h, and secondary antibody for 1 h. Antigen-antibody complexes were detected using ECL detection reagents (Perkin Elmer, Western Blot Chemiluminescence Reagent Plus) according to the manufacturer's instructions.

Akt = experiment: Phosphorylation of Akt in LPS/IFNγ-treated RAW264.7 cells; format: cell-based
AP1 = experiment: pAP 1-Luc luciferase reporter assay in LPS/IFNγ-treated RAW 264.7 (or A549) cells; format: cell-based; conditions: at the concentration higher than 1 μM; LPS (10 μg/ml)/IFNγ (20 ng/ml), 5 h
Protocol: (§4) The luciferase and β-galactosidase assays were performed using a STEADY-GLO luciferase assay system (Promega) and Galacto-Star assay system (Tropix) according to the manufacturer's instructions. Luminescence was measured in a TOPCOUNT.NXT™ Microplate Scintillation and Luminescence Counter (Packard Inc.). The results were normalized to β-galactosidase activity derived from co-transfected LacZ gene under the control of a constitutive promoter.
(§5) RAW 264.7 cells (or A549 cells) were seeded in 24-well plates (10^6 cells/well) 4-6 h before they were transfected with pNF-κB-Luc (Stratagene Corp., Calif.) (100 ng/well) and pCMV-β-gal (100 ng/well), or pAP 1-Luc (Stratagene Corp., Calif.) (200 ng/well) alone. The transfected cells were incubated for 24 h and then washed with the culture medium twice. After 18 h of incubation, the cells were treated with LPS (10 μg/ml)/IFNγ (20 ng/ml) and Compound 2 (final concentration: 0.3, 1, 3, or 10 μM) for 5 h. The cells were subjected to the luciferase and β-galactosidase assays.

NF-κB [2] = experiment: pNF-κB-Luc reporter assay in RAW264.7 cells co-transfected with pFC-MEKK; format: cell-based; conditions: at the concentration of 3 μM or higher; cells treated with LPS/IFNγ
Protocol: as §5, §2

NF-κB [3] = experiment: pNF-κB-Luc luciferase reporter assay in LPS/IFNγ-treated RAW 264.7 (or A549) cells; format: cell-based
Protocol: as §4, §5

AP 1 = experiment: pAP 1-Luc reporter assay in RAW264.7 cells co-transfected with pFC-MEKK; format: cell-based; conditions: at the concentration of 3 μM or higher; cells treated with LPS/IFNγ
Protocol: as §5, §2

TNF α = TNF α protein ELISA in cell culture supernatants; format: cell-based
Protocol: RAW 264.7 cells were seeded (70,000 cells/well) and cultured in 96-well culture plate. After 24 h incubation, the medium was replaced with one containing LPS (5 ug/ml)/IFNγ (20 ng/ml) and each of Compounds 1-4 (final concentration: 3, 5, or 6 μM) was added at different concentrations. After 18-24 h, the supernatants were subjected to the measurement of nitric oxide production using the Nitrate/Nitrite assay kit (Cayman Chemical). Nitric oxide levels were measured as the accumulation of nitrite and nitrate in the incubation medium. Nitrate was reduced to nitrite with nitrate reductase and determined spectrophotometrically with the Griess reagent at OD405. The attached cells were subjected to cytotoxicity measurement using the MTS assay.
An ELISA kit (R & D Systems Inc., USA) was used to measure TNF α protein in cell culture supernatants using according to the manufacturer's instructions.

ATF-2 = experiment: Phosphorylation of ATF-2 in LPS/IFNγ-treated RAW264.7 cells; format: cell-based
iNOS = iNOS level by immunoblotting; format: cell-based; conditions: immunoblotting of cell lysates
Protocol: as §3

Compound	inhibition of proliferation of HONE-1 cells [1]	inhibition of proliferation of NUGC-3 cells (NUGC-3 (gastric cancer))	inhibition of iNOS promoter activity (iNOS promoter)	inhibition of MEKK1 activity or expression (MEKK1)	expression of c-Jun (c-Jun)	COX-II level (COX-II)	phosphorylation of Akt (Akt)	inhibition of AP 1 activity (AP1)	inhibition of pNF-κB activity in cells with over-expression of MEKK1 (NF-κB [2])	inhibition of NF-κB activity, Compound 2 and another P13K/Akt inhibitor (NF-κB [3]; Compound 2 and LY294002 named together, LPS/IFNγ-treated RAW264.7 cells)	inhibition of NF-κB activity (NF-κB [3]; tested at 0.3, 1, 3, or 10 μM, LPS (10 μg/ml)/IFNγ (20 ng/ml), 5 h, serum-free medium)	inhibition of AP 1 activity in cells with over-expression of MEKK1 (AP 1)	inhibition of production of TNF α (TNF α)	phosphorylation of ATF-2 (ATF-2)	iNOS level (iNOS)
COc1cc2c3c(c4cc(OC)c(OC)c(OC)c4c2cc1OC)[C@H](O)[C@@H]1CCC[N+]1([O-])C3 (some centres unmarked) [Compound 4]	inhibited	inhibited	effectively inhibited	–	–	–	–	–	–	–	–	–	–	–	–
COc1cc2c3c[n+]4c(cc3c3cc(OC)c(OC)c(OC)c3c2cc1OC)CCC4 [Compound 1]	inhibited	inhibited	–	–	–	–	–	–	–	–	–	–	–	–	–
COc1cc2c3c(c4cc(OC)c(OC)cc4c2cc1OC)CN1CCC[C@H]1C3 [Compound 2]	inhibited	inhibited	effectively inhibited	inhibited	inhibited	lowered	enhanced	inhibited	inhibited	significantly inhibited	not	inhibited	inhibited	enhanced	lowered
